ChEMBL document CHEMBL4507302, “Data for DCP probe TP-020” (2021)

How the values were obtained:
Settings in all cases: Compound concentration 1000.0 nM
[1] = system: Tyrosine-protein kinase ABL1 (Homo sapiens), P00519 [F317L]
[2] = system: Tyrosine-protein kinase ABL1 (Homo sapiens), P00519 [H396P]
[3] = molecular target: Activin receptor type-1 (Homo sapiens) (UniProt Q04771)
[4] = molecular target: Atypical kinase COQ8A, mitochondrial (Homo sapiens) (UniProt Q8NI60)
[5] = molecular target: Atypical kinase COQ8B, mitochondrial (Homo sapiens) (UniProt Q96D53)
[6] = molecular target: RAC-beta serine/threonine-protein kinase (Homo sapiens) (UniProt P31751)
[7] = molecular target: Ankyrin repeat and protein kinase domain-containing protein 1 (Homo sapiens) (UniProt Q8NFD2)
[8] = molecular target: Cyclin-dependent kinase 3 (Homo sapiens) (UniProt Q00526)
Chain of Cyclin-dependent kinase 3 (Homo sapiens) (Q00526 whole entry, looked up): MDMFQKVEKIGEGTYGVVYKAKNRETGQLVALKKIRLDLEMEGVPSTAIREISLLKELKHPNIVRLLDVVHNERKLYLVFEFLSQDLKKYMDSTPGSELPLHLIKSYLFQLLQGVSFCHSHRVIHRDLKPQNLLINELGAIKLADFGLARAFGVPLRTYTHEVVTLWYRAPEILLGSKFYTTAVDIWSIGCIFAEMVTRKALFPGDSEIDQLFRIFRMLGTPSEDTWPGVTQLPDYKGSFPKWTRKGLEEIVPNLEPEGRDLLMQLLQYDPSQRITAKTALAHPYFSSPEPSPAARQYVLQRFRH

[9] = molecular target: Cyclin-dependent kinase-like 1 (Homo sapiens) (UniProt Q00532)
[10] = molecular target: Dual specificity protein kinase CLK4 (Homo sapiens) (UniProt Q9HAZ1)
[11] = molecular target: Casein kinase I isoform gamma-1 (Homo sapiens) (UniProt Q9HCP0)
[12] = molecular target: Casein kinase I isoform gamma-3 (Homo sapiens) (UniProt Q9Y6M4)
[13] = molecular target: Casein kinase II subunit alpha (Homo sapiens) (UniProt P68400)
[14] = molecular target: Serine/threonine-protein kinase DCLK2 (Homo sapiens) (UniProt Q8N568)
[15] = molecular target: Dual specificity tyrosine-phosphorylation-regulated kinase 1A (Homo sapiens) (UniProt Q13627)
[16] = molecular target: Cyclin-G-associated kinase (Homo sapiens) (UniProt O14976)
[17] = molecular target: Rhodopsin kinase GRK1 (Homo sapiens) (UniProt Q15835)
[18] = molecular target: Beta-adrenergic receptor kinase 1 (Homo sapiens) (UniProt P25098)
[19] = molecular target: Homeodomain-interacting protein kinase 4 (Homo sapiens) (UniProt Q8NE63)
[20] = molecular target: Serine/threonine-protein kinase ICK (Homo sapiens) (UniProt Q9UPZ9)
Chain of Serine/threonine-protein kinase ICK (Homo sapiens) (Q9UPZ9 whole entry): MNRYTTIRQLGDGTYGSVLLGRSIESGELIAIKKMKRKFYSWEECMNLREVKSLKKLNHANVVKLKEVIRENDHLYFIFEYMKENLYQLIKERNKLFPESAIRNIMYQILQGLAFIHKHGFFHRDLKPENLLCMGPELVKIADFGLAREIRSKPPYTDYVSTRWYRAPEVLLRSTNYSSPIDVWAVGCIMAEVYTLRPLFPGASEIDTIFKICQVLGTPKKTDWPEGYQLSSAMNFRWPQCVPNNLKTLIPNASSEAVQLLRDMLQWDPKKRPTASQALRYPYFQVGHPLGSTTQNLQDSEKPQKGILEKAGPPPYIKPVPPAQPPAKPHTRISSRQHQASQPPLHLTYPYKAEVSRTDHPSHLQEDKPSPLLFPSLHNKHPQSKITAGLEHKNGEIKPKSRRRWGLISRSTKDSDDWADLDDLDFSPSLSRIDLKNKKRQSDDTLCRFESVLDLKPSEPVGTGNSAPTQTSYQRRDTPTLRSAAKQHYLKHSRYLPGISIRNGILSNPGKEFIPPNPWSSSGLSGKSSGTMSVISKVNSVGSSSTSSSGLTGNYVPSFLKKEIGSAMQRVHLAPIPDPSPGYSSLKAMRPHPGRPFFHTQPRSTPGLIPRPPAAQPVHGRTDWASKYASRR

[21] = molecular target: Serine/threonine-protein kinase LATS2 (Homo sapiens) (UniProt Q9NRM7)
[22] = molecular target: Mitogen-activated protein kinase kinase kinase 13 (Homo sapiens) (UniProt O43283)
[23] = molecular target: Dual specificity mitogen-activated protein kinase kinase 1 (Homo sapiens) (UniProt Q02750)
[24] = molecular target: Misshapen-like kinase 1 (Homo sapiens) (UniProt Q8N4C8)
Chain of Misshapen-like kinase 1 (Homo sapiens) (Q8N4C8 whole entry, looked up): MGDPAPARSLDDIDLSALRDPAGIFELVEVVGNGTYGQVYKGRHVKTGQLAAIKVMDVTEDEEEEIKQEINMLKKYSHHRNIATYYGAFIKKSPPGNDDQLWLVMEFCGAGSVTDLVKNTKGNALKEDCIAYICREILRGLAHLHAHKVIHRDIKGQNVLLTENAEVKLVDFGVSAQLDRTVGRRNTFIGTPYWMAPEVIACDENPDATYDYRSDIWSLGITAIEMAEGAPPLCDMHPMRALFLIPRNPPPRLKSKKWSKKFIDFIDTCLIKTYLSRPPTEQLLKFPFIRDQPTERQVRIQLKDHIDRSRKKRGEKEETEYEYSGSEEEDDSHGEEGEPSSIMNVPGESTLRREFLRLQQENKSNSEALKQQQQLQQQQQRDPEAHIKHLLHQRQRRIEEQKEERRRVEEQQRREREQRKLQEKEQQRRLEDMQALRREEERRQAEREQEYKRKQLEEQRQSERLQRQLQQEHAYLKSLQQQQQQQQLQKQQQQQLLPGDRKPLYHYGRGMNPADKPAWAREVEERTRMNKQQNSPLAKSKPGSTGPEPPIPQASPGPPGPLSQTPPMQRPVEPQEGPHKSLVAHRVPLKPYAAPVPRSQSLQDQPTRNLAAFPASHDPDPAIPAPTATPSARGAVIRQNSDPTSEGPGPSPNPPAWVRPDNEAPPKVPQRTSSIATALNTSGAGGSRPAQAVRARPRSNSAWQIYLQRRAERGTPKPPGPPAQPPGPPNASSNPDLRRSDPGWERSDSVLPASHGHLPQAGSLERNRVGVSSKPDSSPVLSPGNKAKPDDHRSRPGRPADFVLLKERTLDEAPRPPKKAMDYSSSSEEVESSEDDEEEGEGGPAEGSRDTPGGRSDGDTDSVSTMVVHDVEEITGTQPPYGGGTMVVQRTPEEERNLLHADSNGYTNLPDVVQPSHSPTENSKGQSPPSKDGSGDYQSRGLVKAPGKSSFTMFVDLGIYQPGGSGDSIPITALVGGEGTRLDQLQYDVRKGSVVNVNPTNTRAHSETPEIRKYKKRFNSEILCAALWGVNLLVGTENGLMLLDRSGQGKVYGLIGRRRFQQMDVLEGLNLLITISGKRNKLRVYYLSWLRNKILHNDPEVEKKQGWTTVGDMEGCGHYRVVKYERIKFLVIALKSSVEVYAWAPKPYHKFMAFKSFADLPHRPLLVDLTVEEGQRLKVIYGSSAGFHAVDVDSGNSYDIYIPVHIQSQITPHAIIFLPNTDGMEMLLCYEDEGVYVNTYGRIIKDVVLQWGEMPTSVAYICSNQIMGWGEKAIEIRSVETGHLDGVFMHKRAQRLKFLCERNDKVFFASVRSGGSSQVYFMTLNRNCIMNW

[25] = molecular target: Mitogen-activated protein kinase kinase kinase 10 (Homo sapiens) (UniProt Q02779)
[26] = molecular target: Calcium-dependent protein kinase 1 (Plasmodium falciparum) (UniProt P62344)
[27] = molecular target: Phosphorylase b kinase gamma catalytic chain, skeletal muscle/heart isoform (Homo sapiens) (UniProt Q16816)
[28] = molecular target: Phosphatidylinositol 4-kinase beta (Homo sapiens) (UniProt Q9UBF8)
[29] = molecular target: cAMP-dependent protein kinase catalytic subunit beta (Homo sapiens) (UniProt P22694)
[30] = molecular target: Serine/threonine-protein kinase PLK3 (Homo sapiens) (UniProt Q9H4B4)
Chain of Serine/threonine-protein kinase PLK3 (Homo sapiens) (Q9H4B4 whole entry, looked up): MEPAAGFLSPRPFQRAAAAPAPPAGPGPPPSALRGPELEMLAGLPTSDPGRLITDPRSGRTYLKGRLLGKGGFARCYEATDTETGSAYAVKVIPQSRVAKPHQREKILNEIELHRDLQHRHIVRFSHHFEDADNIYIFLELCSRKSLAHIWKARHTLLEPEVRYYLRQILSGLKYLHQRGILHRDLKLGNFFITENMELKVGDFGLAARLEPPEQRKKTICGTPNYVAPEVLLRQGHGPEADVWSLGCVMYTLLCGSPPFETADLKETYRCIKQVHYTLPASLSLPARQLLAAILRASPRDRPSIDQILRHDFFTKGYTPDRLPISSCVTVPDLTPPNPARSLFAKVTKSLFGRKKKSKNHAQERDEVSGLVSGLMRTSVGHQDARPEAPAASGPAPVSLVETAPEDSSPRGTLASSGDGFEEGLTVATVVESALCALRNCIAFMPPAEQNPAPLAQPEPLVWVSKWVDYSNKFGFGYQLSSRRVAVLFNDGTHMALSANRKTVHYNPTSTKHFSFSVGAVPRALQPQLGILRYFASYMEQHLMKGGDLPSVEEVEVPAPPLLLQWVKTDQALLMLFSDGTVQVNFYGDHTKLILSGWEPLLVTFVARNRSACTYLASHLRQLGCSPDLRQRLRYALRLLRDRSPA

[31] = molecular target: Serine/threonine-protein kinase D1 (Homo sapiens) (UniProt Q15139)
Chain of Serine/threonine-protein kinase D1 (Homo sapiens) (Q15139 whole entry): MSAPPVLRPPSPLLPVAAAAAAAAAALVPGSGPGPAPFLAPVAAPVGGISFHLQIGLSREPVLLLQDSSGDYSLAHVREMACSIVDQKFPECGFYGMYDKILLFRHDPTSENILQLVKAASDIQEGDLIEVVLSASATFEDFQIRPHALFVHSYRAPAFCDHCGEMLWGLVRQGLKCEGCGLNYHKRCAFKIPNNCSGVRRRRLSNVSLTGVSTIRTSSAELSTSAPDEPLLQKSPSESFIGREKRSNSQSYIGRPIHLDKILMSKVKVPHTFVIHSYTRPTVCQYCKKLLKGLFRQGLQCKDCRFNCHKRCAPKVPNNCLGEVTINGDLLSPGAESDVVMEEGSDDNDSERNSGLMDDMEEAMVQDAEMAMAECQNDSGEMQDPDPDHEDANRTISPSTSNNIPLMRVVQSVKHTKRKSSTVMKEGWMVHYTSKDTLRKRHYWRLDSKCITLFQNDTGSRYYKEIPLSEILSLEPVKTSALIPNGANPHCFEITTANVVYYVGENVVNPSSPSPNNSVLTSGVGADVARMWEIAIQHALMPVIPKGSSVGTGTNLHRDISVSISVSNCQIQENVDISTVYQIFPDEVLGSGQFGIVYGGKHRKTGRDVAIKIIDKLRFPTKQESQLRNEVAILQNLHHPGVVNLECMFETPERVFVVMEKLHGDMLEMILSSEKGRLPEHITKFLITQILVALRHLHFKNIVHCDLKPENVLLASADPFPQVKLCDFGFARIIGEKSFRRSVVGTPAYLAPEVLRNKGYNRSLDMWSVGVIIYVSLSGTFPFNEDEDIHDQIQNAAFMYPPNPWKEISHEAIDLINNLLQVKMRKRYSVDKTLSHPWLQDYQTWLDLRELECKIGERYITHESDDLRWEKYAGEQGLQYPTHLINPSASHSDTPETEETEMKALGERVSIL

[32] = molecular target: Serine/threonine-protein kinase SIK3 (Homo sapiens) (UniProt Q9Y2K2)
[33] = molecular target: Receptor-interacting serine/threonine-protein kinase 1 (Homo sapiens) (UniProt Q13546)
[34] = molecular target: Serine/threonine-protein kinase Sgk2 (Homo sapiens) (UniProt Q9HBY8)
[35] = molecular target: NUAK family SNF1-like kinase 2 (Homo sapiens) (UniProt Q9H093)
[36] = molecular target: SRSF protein kinase 3 (Homo sapiens) (UniProt Q9UPE1)
[37] = molecular target: Serine/threonine-protein kinase 36 (Homo sapiens) (UniProt Q9NRP7)
[38] = molecular target: STE20/SPS1-related proline-alanine-rich protein kinase (Homo sapiens) (UniProt Q9UEW8)
[39] = molecular target: Serine/threonine-protein kinase TAO2 (Homo sapiens) (UniProt Q9UL54)
[40] = molecular target: High affinity nerve growth factor receptor (Homo sapiens) (UniProt P04629)
[41] = molecular target: NT-3 growth factor receptor (Homo sapiens) (UniProt Q16288)
[42] = molecular target: Dual specificity protein kinase TTK (Homo sapiens) (UniProt P33981)
[43] = molecular target: Non-receptor tyrosine-protein kinase TYK2 (Homo sapiens) (UniProt P29597)
Chain of Non-receptor tyrosine-protein kinase TYK2 (Homo sapiens) (P29597 whole entry): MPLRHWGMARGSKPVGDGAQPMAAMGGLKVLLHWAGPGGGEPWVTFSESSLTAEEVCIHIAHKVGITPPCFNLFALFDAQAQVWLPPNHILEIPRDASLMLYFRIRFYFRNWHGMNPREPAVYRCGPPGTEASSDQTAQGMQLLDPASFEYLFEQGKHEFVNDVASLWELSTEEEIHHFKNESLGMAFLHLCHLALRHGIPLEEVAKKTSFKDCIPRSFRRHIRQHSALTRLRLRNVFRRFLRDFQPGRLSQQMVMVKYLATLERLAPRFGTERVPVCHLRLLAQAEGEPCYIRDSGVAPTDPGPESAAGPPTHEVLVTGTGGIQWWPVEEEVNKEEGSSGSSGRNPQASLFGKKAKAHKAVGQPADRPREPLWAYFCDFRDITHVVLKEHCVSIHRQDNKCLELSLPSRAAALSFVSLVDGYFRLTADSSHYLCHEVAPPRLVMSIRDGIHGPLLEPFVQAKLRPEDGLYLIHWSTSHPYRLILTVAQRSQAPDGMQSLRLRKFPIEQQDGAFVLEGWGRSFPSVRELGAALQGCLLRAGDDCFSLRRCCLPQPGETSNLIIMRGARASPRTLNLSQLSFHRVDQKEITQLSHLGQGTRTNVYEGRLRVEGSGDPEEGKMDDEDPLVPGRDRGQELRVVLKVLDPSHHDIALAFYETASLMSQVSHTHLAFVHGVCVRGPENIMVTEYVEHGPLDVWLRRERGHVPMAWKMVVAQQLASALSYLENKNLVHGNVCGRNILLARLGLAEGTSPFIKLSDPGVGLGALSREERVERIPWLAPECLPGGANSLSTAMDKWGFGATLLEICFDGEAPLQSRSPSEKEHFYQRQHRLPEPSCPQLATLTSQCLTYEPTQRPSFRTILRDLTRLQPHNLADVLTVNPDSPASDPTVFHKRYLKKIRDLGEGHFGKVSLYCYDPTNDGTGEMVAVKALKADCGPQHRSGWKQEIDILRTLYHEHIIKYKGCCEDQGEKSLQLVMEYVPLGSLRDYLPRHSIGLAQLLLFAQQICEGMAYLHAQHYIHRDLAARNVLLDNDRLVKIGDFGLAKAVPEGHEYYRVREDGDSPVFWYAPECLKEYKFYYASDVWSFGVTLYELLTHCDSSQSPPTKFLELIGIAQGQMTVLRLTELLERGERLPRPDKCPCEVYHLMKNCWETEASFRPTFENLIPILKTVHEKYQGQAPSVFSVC

[44] = molecular target: Serine/threonine-protein kinase ULK2 (Homo sapiens) (UniProt Q8IYT8)
[45] = molecular target: Serine/threonine-protein kinase WNK2 (Homo sapiens) (UniProt Q9Y3S1)

Measured: residual activity

Nc1cnc(N2CCc3cc(S(=O)(=O)Nc4c(F)cc(Cl)cc4F)cc(N4CCCC4=O)c32)nc1
inactive: [1] 78% | [2] 86% | [3] 100% | [4] 100% | [5] 100% | [6] 100% | [7] 100% | [8] 100% | [9] 85% | [10] 89% | [11] 97% | [12] 78% | [13] 100% | [14] 100% | [15] 80% | [16] 100% | [17] 100% | [18] 100% | [19] 100% | [20] 80% | [21] 100% | [22] 100% | [23] 100% | [24] 100% | [25] 75% | [26] 97% | [27] 71% | [28] 93% | [29] 100% | [30] 100% | [31] 83% | [32] 83% | [33] 92% | [34] 76% | [35] 100% | [36] 100% | [37] 98% | [38] 100% | [39] 78% | [40] 100% | [41] 97% | [42] 90% | [43] 100% | [44] 100% | [45] 100%

Cn1nc(C(F)(F)F)cc1-c1cnc(N2CCc3cc(S(=O)(=O)Nc4c(F)cc(Cl)cc4F)cc(N4CCCC4=O)c32)nc1 [TP-020]
inactive: [1] 94% | [2] 87% | [3] 85% | [4] 100% | [5] 100% | [6] 100% | [7] 96% | [8] 91% | [9] 77% | [10] 90% | [11] 100% | [12] 81% | [13] 65% | [14] 100% | [15] 93% | [16] 94% | [17] 95% | [18] 85% | [19] 100% | [20] 84% | [21] 93% | [22] 79% | [23] 95% | [24] 99% | [25] 93% | [26] 70% | [27] 98% | [28] 77% | [29] 81% | [30] 79% | [31] 80% | [32] 94% | [33] 100% | [34] 100% | [35] 89% | [36] 100% | [37] 100% | [38] 91% | [39] 100% | [40] 69% | [41] 98% | [42] 97% | [43] 78% | [44] 74% | [45] 81%
